Assay type in all cases: cell-based
Data set [1] deals with K562. Nature of the data set: Cytostatic/cytotoxic MTT assay, K562. Conditions: Homo sapiens, K562; 72 h incubation; read-out: MTT, IC50 K562. In a few lines:
(§1)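 IC50 values reflect the drug concentration halving cell growth in a 72 h MTT assay. Readings were taken at 540 nm after SDS lysis, using duplicate four-fold dilution series on cells plated a day earlier.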
For orientation: Formazan colour is commonly taken as a measure of viable cells.

In data set [2] the test system is K562-TAX. In words: Cytostatic/cytotoxic MTT assay, K562-TAX. The settings on record: Homo sapiens, paclitaxel resistant subline, 72 h, read-out: MTT, IC50 K562-TAX. The method in brief: (§2)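 Human cancer lines, including daunorubicin-resistant CEM-DNR (mrp-1/mdr-1 overexpressing) and paclitaxel-resistant K562-TAX (mdr-1), seeded 25,000-30,000 cells/well, pre-incubated 24 h, then treated in duplicate with four-fold dilutions for 72 h at 37° C, 5% CO2. MTT read-out at 540 nm; IC50 from dose-response curves.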

In data set [3] the test system is A549. Nature of the data set: Cytostatic/cytotoxic MTT assay, A549. The settings on record: Homo sapiens, A549; 72 h incubation; read-out: MTT, IC50 A549. In a few lines:
as §1

In data set [4] the test system is HCT116p53-/-. In words: Cytostatic/cytotoxic MTT assay, HCT116p53-/-. Conditions: Homo sapiens, HCT-116; 72 h incubation; read-out: MTT, IC50 HCT116 p53-/-. In a few lines: as §2
Data set [5] deals with MRC-5. Nature of the data set: Cytostatic/cytotoxic MTT assay, MRC-5 fibroblasts. The settings on record: Homo sapiens, MRC5; non-malignant fibroblasts, 72 h; read-out: MTT, IC50 MRC-5. The method in brief:
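Growth inhibition is measured by MTT metabolic staining after a 3-day compound treatment at 37 °C, 5% CO2. Formazan is dissolved overnight in 10% aqueous SDS, pH 5.5, and read at 540 nm.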

Data set [6] deals with Huh-7 cells harboring replicon 1B. Nature of the data set: Cytotoxicity in replicon 1B cells. Conditions: HCV subtype 1B replicon. As to the method:
(§3) Compounds were also tested in Huh-7 cells harboring sub-genomic reporter replicons derived from HCV subtypes 1B and 2A (ref.: Stuyver, L. J.; Whitaker, T.; McBrayer, T. R.; Hernandez-Santiago, B. I.; Lostia, S.; Tharnish, P. M.; Ramesh, M.; Chu, C. K.; Jordan, R.; Shi, J. X.; Rachakonda, S.; Watanabe, K. A.; Otto, M. J.; Schinazi, R. F. Antimicrob. Agents Chemother. 2003, 47, 244-254).

The subject of data set [7] is Huh-7 cells harboring replicon 2A. In words: Cytotoxicity in replicon 2A cells. The settings on record: HCV subtype 2A replicon. As to the method: as §3

The term CC50 denotes the concentration giving 50% cytotoxicity. Read a high CC50 as lower toxicity to the cells. Consider `CNc1ncnc2c1c(-c1cc3ccccc3o1)cn2[C@@H]1O[C@H](CO)[C@@H](O)[C@H]1O` [Compound 3f, 5-(Benzofuran-2-yl)-4-methylamino-7-(β-D-ribofuranosyl)-7H-pyrrolo[2,3-d]pyrimidine], for which the IC50 was greater than 20 µM in data set [1]; greater than 20 µM in data set [2]; greater than 20 µM in data set [3]; greater than 20 µM in data set [4]; 75.3 µM in data set [5]. Besides, the CC50 in data set [6] and in data set [7] was greater than 44 µM throughout.
Regarding `C#Cc1cn([C@@H]2O[C@H](CO)[C@@H](O)[C@H]2O)c2ncnc(NC)c12` [Compound 3g, 5-Ethynyl-4-methylamino-7-(β-D-ribofuranosyl)-7H-pyrrolo[2,3-d]pyrimidine], the IC50 is greater than 20 µM in data set [1]; 1.38 µM in data set [2]; greater than 20 µM in data set [3]; greater than 20 µM in data set [4]; greater than 100 µM in data set [5]. The CC50 in data set [6] and in data set [7] was greater than 44 µM in each case.
For `CN(C)c1ncnc2c1c(-c1ccco1)cn2[C@@H]1O[C@H](CO)[C@@H](O)[C@H]1O` [Compound 4a, 4-Dimethylamino-5-(furan-2-yl)-7-(β-D-ribofuranosyl)-7H-pyrrolo[2,3-d]pyrimidine], the IC50 was 0.15 µM in data set [1]; 1.28 µM in data set [2]; 4.6 µM in data set [3]; 0.32 µM in data set [4]; greater than 100 µM in data set [5]. The CC50 in data set [6] and in data set [7] was greater than 44 µM each time.
As to `CN(C)c1ncnc2c1c(-c1ccoc1)cn2[C@@H]1O[C@H](CO)[C@@H](O)[C@H]1O` [Compound 4b, 4-Dimethylamino-5-(furan-3-yl)-7-(β-D-ribofuranosyl)-7H-pyrrolo[2,3-d]pyrimidine], the IC50 in data set [1] is 1.54 µM; in data set [2], 14.9 µM; in data set [3], greater than 20 µM; in data set [4], greater than 20 µM; in data set [5] it was greater than 100 µM. Moreover, the half-maximal cytotoxic concentration (CC50) in data set [6] and in data set [7] was greater than 44 µM throughout.
As to `CN(C)c1ncnc2c1c(-c1cccs1)cn2[C@@H]1O[C@H](CO)[C@@H](O)[C@H]1O` [Compound 4c, 4-Dimethylamino-7-(β-D-ribofuranosyl)-5-(thiophen-2-yl)-7H-pyrrolo[2,3-d]pyrimidine], the IC50 in data set [1] is greater than 20 µM; in data set [2], greater than 20 µM; in data set [3], greater than 20 µM; in data set [4], greater than 20 µM; in data set [5] it was greater than 100 µM. Further, the CC50 in data set [6] and in data set [7] was greater than 44 µM each time.
Regarding `CN(C)c1ncnc2c1c(-c1ccsc1)cn2[C@@H]1O[C@H](CO)[C@@H](O)[C@H]1O` [Compound 4d, 4-Dimethylamino-7-(β-D-ribofuranosyl)-5-(thiophen-3-yl)-7H-pyrrolo[2,3-d]pyrimidine], the IC50 in data set [1] was 0.53 µM; in data set [2], greater than 20 µM; in data set [3] it was greater than 20 µM; in data set [4], greater than 20 µM; in data set [5], greater than 100 µM. In addition, the CC50 in data set [6] and in data set [7] was greater than 44 µM in each case.
As for `CN(C)c1ncnc2c1c(-c1ccccc1)cn2[C@@H]1O[C@H](CO)[C@@H](O)[C@H]1O` [Compound 4e, 4-Dimethylamino-5-phenyl-7-(β-D-ribofuranosyl)-7H-pyrrolo[2,3-d]pyrimidine], the IC50 is greater than 20 µM in data set [1]; greater than 20 µM in data set [2]; greater than 100 µM in data set [3]; greater than 20 µM in data set [4]; greater than 100 µM in data set [5]. Also, the CC50 in data set [6] and in data set [7] was greater than 44 µM throughout.
As to `CN(C)c1ncnc2c1c(-c1cc3ccccc3o1)cn2[C@@H]1O[C@H](CO)[C@@H](O)[C@H]1O` [Compound 4f, 5-(Benzofuran-2-yl)-4-dimethylamino-7-(β-D-ribofuranosyl)-7H-pyrrolo[2,3-d]pyrimidine], the IC50 in data set [1] is greater than 20 µM; in data set [2], greater than 20 µM; in data set [3], greater than 20 µM; in data set [4], greater than 20 µM; in data set [5], greater than 100 µM. Besides, the half-maximal cytotoxic concentration (CC50) in data set [6] and in data set [7] was greater than 44 µM each time.
On to `C#Cc1cn([C@@H]2O[C@H](CO)[C@@H](O)[C@H]2O)c2ncnc(N(C)C)c12` [Compound 4g, 4-Dimethylamino-5-ethynyl-7-(β-D-ribofuranosyl)-7H-pyrrolo[2,3-d]pyrimidine], for which the IC50 came to 0.11 µM in data set [1]; 0.26 µM in data set [2]; 0.39 µM in data set [3]; 0.29 µM in data set [4]; 36.1 µM in data set [5]. The CC50 in data set [6] and in data set [7] was greater than 44 µM in each case.
For `CN(C)c1ncnc2c1c(I)cn2[C@@H]1O[C@H](CO)[C@@H](O)[C@H]1O` [Compound 4h, 4-Dimethylamino-5-iodo-7-(β-D-ribofuranosyl)-7H-pyrrolo[2,3-d]pyrimidine], the IC50 in data set [1] is 0.07 µM; in data set [2] it was 0.05 µM; in data set [3], 0.34 µM; in data set [4] it was 0.12 µM; in data set [5] it was 91.7 µM. The CC50 in data set [6] and in data set [7] was greater than 44 µM in each case.
Consider `Cc1ncnc2c1c(-c1ccco1)cn2[C@@H]1O[C@H](CO)[C@@H](O)[C@H]1O` [Compound 5a, 5-(Furan-2-yl)-4-methyl-7-(β-D-ribofuranosyl)-7H-pyrrolo[2,3-d]pyrimidine], for which the IC50 in data set [1] is 0.04 µM; in data set [2] it was 0.11 µM; in data set [3] it was 0.11 µM; in data set [4], 0.04 µM; in data set [5], 0.61 µM. For the same compound, the CC50 in data set [6] was found to be 6.62 µM; in data set [7], 43.6 µM.
Take `Cc1ncnc2c1c(-c1ccoc1)cn2[C@@H]1O[C@H](CO)[C@@H](O)[C@H]1O` [Compound 5b, 5-(Furan-3-yl)-4-methyl-7-(β-D-ribofuranosyl)-7H-pyrrolo[2,3-d]pyrimidine]: the IC50 in data set [1] is greater than 20 µM; in data set [2] it was greater than 20 µM; in data set [3], greater than 20 µM; in data set [4], greater than 20 µM; in data set [5], 98.3 µM. Besides, the CC50 in data set [6] and in data set [7] was greater than 44 µM each time.
Regarding `Cc1ncnc2c1c(-c1cccs1)cn2[C@@H]1O[C@H](CO)[C@@H](O)[C@H]1O` [Compound 5c, 4-Methyl-7-(β-D-ribofuranosyl)-5-(thiophen-2-yl)-7H-pyrrolo[2,3-d]pyrimidine], the IC50 in data set [1] is greater than 20 µM; in data set [2], greater than 20 µM; in data set [3], greater than 20 µM; in data set [4] it was greater than 20 µM; in data set [5] it was greater than 100 µM. The CC50 in data set [6] and in data set [7] was greater than 44 µM each time.
In the case of `Cc1ncnc2c1c(-c1ccsc1)cn2[C@@H]1O[C@H](CO)[C@@H](O)[C@H]1O` [Compound 5d, 4-Methyl-7-(β-D-ribofuranosyl)-5-(thiophen-3-yl)-7H-pyrrolo[2,3-d]pyrimidine], the IC50 in data set [1] is 0.32 µM; in data set [2], 5.55 µM; in data set [3], greater than 20 µM; in data set [4], 1.43 µM; in data set [5], greater than 100 µM. Besides, the CC50 in data set [6] and in data set [7] was greater than 44 µM each time.
Turning to `Cc1ncnc2c1c(-c1ccccc1)cn2[C@@H]1O[C@H](CO)[C@@H](O)[C@H]1O` [Compound 5e, 4-Methyl-5-phenyl-7-(β-D-ribofuranosyl)-7H-pyrrolo[2,3-d]pyrimidine], the IC50 in data set [1] was greater than 20 µM; in data set [2], greater than 20 µM; in data set [3] it was greater than 20 µM; in data set [4], 95.3 µM; in data set [5], greater than 100 µM. Moreover, the 50% cytotoxic concentration (CC50) in data set [6] and in data set [7] was greater than 44 µM in each case.
For the compound `Cc1ncnc2c1c(-c1cc3ccccc3o1)cn2[C@@H]1O[C@H](CO)[C@@H](O)[C@H]1O` [Compound 5f, 5-(Benzofuran-2-yl)-4-methyl-7-(β-D-ribofuranosyl)-7H-pyrrolo[2,3-d]pyrimidine], the IC50 is 19.5 µM in data set [1]; greater than 20 µM in data set [2]; greater than 20 µM in data set [3]; greater than 20 µM in data set [4]; 84.4 µM in data set [5]. Further, the cytotoxic concentration (CC50) in data set [6] and in data set [7] was greater than 44 µM throughout.
On to `C#Cc1cn([C@@H]2O[C@H](CO)[C@@H](O)[C@H]2O)c2ncnc(C)c12` [Compound 5g, 5-Ethynyl-4-methyl-7-(β-D-ribofuranosyl)-7H-pyrrolo[2,3-d]pyrimidine], for which the IC50 was 6.92 µM in data set [1]; 0.11 µM in data set [2]; 19.2 µM in data set [3]; greater than 20 µM in data set [4]; 1.44 µM in data set [5]. The CC50 in data set [6] and in data set [7] was greater than 44 µM throughout.

The values are drawn from patent US9586986B2, “Substituted 7-deazapurine ribonucleosides for therapeutic uses” (Institute of Organic Chemistry and Biochemistry ASCR, v.v.i., priority 2014, dated 2017).
